Converted amounts (≈) assume the structure as drawn.
Assays:
[1] = system: M. tuberculosis H37Rv expressing the green fluorescent protein (H37Rv-GFP); experiment: microbe, parasite or virus in culture; type: cell-based; settings: Mycobacterium tuberculosis, H37RV, 120 h; read-out: QUM (MIC50)
[2] = system: Raw 264.7 cells infected with H37Rv-GFP; experiment: microbe, parasite or virus in culture; type: cell-based, M. tuberculosis; settings: Mycobacterium tuberculosis, H37RV, 120 h; read-out: QIM (MIC50)

Row | Structure (SMILES) | MIC50 [1] [µM] | MIC50 [2] [µM] | melting point [°C]
1 | O=C(Nc1ccc(O)cc1)c1cc2sc(N3CCCCC3)nc2s1 [Compound 97] | 1 to 20 (≈ 0.359 to 7.19 µg/mL) | 1 to 20 (≈ 0.359 to 7.19 µg/mL) | 246
2 | O=C(Nc1ccc(-c2cc[nH]n2)cc1)c1cc2sc(N3CCOCC3)nc2s1 [Compound 156] | 1 to 20 (≈ 0.412 to 8.23 µg/mL) | < 1 | 319
3 | Cc1nc2cc(NC(=O)c3cc4sc(N(C)CCO)nc4s3)ccc2o1 [Compound 201] | < 1 | 1 to 20 (≈ 0.388 to 7.77 µg/mL) | 226.3
4 | O=C(Nc1ccc(OC(F)(F)F)cc1)c1cc2nc(N3CCCCC3)sc2s1 [Compound 14] | 1 to 20 (≈ 0.427 to 8.55 µg/mL) | < 1 | 238
5 | COc1ccc(NC(=O)c2cc3sc(N4CC5CC4CN5)nc3s2)cc1 (centres unmarked) [Compound 94] | > 20 | > 20 | 161
6 | Cc1nnc(-c2ccc(NC(=O)c3cc4sc(N5CCOCC5)nc4s3)cc2)o1 [Compound 103] | < 1 | < 1 | 319.1
7 | COc1ccc(NC(=O)c2cc3sc(N4CCCC(OCc5ccccc5)C4)nc3s2)cc1 (centres unmarked) [Compound 95] | > 20 | < 1 | 169
8 | Cc1cc2cc(NC(=O)c3cc4sc(N5CCOCC5)nc4s3)ccc2o1 [Compound 135] | 1 to 20 (≈ 0.399 to 7.99 µg/mL) | < 1 | 231.3
9 | COC(=O)C1CCC(NC(=O)c2cc3nc(N4CCCCC4)sc3s2)CC1 (centres unmarked) [Compound 30] | > 20 |  | 191
10 | O=C(Nc1ccc(C(F)(F)F)cc1)c1cc2sc(N3CCOCC3)nc2s1 [Compound 107] | > 20 | < 1 | 259.3
11 | COc1ccc(NC(=O)c2cc3sc(N4CCC(OCc5ccccc5)CC4)nc3s2)cc1 [Compound 77] | 1 to 20 (≈ 0.48 to 9.59 µg/mL) | < 1 | 190.3
12 | CC(=O)c1ccc(NC(=O)c2cc3sc(N4CCOCC4)nc3s2)cc1 [Compound 188] | < 1 | < 1 | 248
13 | O=C(Nc1cc(-c2ccccc2)[nH]n1)c1cc2sc(N3CCOCC3)nc2s1 [Compound 160] | > 20 | < 1 | 305
14 | O=C(Nc1ccc(F)cc1)c1cc2sc(N3CCC(CO)CC3)nc2s1 [Compound 142] | < 1 | < 1 | 246.3
15 | Cc1nc2cc(NC(=O)C3CCc4nc(N5CCOCC5)sc4C3)ccc2o1 (centres unmarked) [Compound 170] | > 20 | > 20 | 239
16 | CCC1COCCN1c1nc2sc(C(=O)Nc3ccc4oc(C)nc4c3)cc2s1 (centres unmarked) [Compound 151] | 1 to 20 (≈ 0.429 to 8.57 µg/mL) | < 1 | 176

Row | Structure (SMILES) | MIC50 [1] [µM] | MIC50 [2] [µM] | melting point [°C]
17 | COc1ccc(NC(=O)c2ccc3sc(N4CCCCC4)nc3c2)cc1 [Compound 70] | > 20 | > 20 | 222
18 | Cc1nc2cc(NC(=O)c3cc4sc(N5CCOCC5)nc4s3)ccc2o1 [Compound 83] | < 1 | < 1 | 268.3
19 | Cc1nc2c(NC(=O)c3cc4sc(N5CCOCC5)nc4s3)cccc2o1 [Compound 102] | > 20 | > 20 | 209.3
20 | O=C(Nc1ccc(C(F)(F)F)cc1)c1cc2nc(N3CCCCC3)sc2s1 [Compound 33] | > 20 |  | 228.6
21 | Cc1nc2ccc(NC(=O)c3cc4nc(N5CCCCC5)sc4s3)cc2o1 [Compound 34] | > 20 |  | 213
22 | CC1CCN(c2ccc(NC(=O)c3cc4sc(NCCOc5ccc(Cl)cc5)nc4s3)cc2)CC1 [Compound 347] | > 20 | > 20 | 
23 | Cc1nc2cc(NC(=O)c3cc4sc(N5CCC(C(O)c6ccc(Cl)cc6)CC5)nc4s3)ccc2o1 (centres unmarked) [Compound 206] | > 20 | < 1 | 
24 | O=C(Nc1ccc(-c2ccc(F)nc2)cc1)c1cc2sc(N3CCN(CCO)CC3)nc2s1 [Compound 337] | < 1 | < 1 | 
25 | Cc1nc2cc(NC(=O)c3sc4nc(N5CCOCC5)sc4c3OCc3ccccc3)ccc2o1 [Compound 185] | > 20 | > 20 | 
26 | Cc1nc2cc(NC(=O)c3cc4sc(N5CCC(C(=O)c6ccc(Cl)cc6)CC5)nc4s3)ccc2o1 [Compound 205] | > 20 | > 20 | 
27 | CN(CCCO)c1nc2sc(C(=O)Nc3ccc(-c4ccc(F)nc4)cc3)cc2s1 [Compound 291] | < 1 | < 1 | 
28 | O=C(Nc1ccc(-c2ccc(F)nc2)cc1)c1cc2sc(NCCOc3ccc(Cl)cc3)nc2s1 [Compound 301] | > 20 | < 1 | 
29 | Cc1nc2cc(NC(=O)c3cc4sc(N5CC(C(=O)N(C)C)C5)nc4s3)ccc2o1 [Compound 244] | > 20 | < 1 | 
30 | Cc1nc2cc(NC(=O)c3cc4sc(N(CCO)C5CCCCC5)nc4s3)ccc2o1 [Compound 227] | 1 to 20 (≈ 0.457 to 9.13 µg/mL) | > 20 | 
31 | CC(C)(C)OC(=O)N1CCN(c2nc3sc(C(=O)Nc4ccc(-c5ccc(F)cn5)cc4)cc3s2)CC1 [Compound 306] | > 20 | < 1 | 

Source: patent US11279714B2, “Anti-infective compounds” (priority 2014, dated 2022)
